In US20250332279A1, “PHARMACEUTICAL COMPOSITION AND METHOD FOR TREATING GLIOBLASTOMAS” (National Cheng Kung University, priority 2024, published 2025):

Tested on: U87MG intracranial brain tumors
Test: In vivo antitumor efficiency of gene silencing-enhanced radiotherapy
Design: species or system mice
Description: For the animal experiments, luciferase expression plasmid-transfected U87MG cell-implanted pathogen-free male NU/NU mice (5-7 weeks old, 20-25 g, from BioLASCO, Taiwan) were employed in this study. U87MG cells were cultured at 37° C. with 5% CO2 in M EM with 10% fetal bovine serum and 1% penicillin/streptomycin (Invitrogen). Mice were anaesthetized with 2% isoflurane gas and immobilized on a stereotactic frame to implant U87MG cells. A sagittal incision in the skin overlying the calvarium was created. U87MG cell implantation was performed by creating a hole in the exposed cranium 1.5 mm anterior and 2 mm lateral to the bregma using a 27G needle. A total volume of 5 μL of U87MG cell suspension (1×10^5 cell/μL) was injected at a depth of 3 mm from the brain surface over a 5 min period. The needle was withdrawn over 2 min. MRI was performed to monitor brain tumor growth for 7 days after tumor cell implantation.
The details of the CE D procedure are as described in our previous study. Briefly, infusion cannulas were fabricated with silica tubing (Polymicro Technologies, Phoenix, AZ, USA) fused to a 0.1 mL syringe (Plastic One, Roanoke, VA, USA) with a 0.5 mm stepped-tip needle that protruded from the silica guide base. The treatment agents (VLPs or drugs) were loaded into the syringes and attached to a microinfusion pump (Bioanalytical Systems, Lafayette, IN, USA). The syringe with a silica cannula was mounted onto a stereotactic holder and then lowered through a puncture hole made in the skull to the implanted tumor. The sample solution was infused at a rate of 1 μL/min until a volume of 5 μL had been delivered, and the cannula was removed 2 min later.
All animal experiments were approved by the Animal Committee of Chang Gung University and adhered to the experimental animal care guidelines (IACUC NO. CGU106-036). Mice were raised in a room with a thermostat at 26° C. Nu/Nu mice weighing approximately 25-30 g (5-6 weeks old) were tested to confirm the efficacy of the proposed approach. Intracranial brain tumors were induced by transplantation of U87MG cells into mouse brains. Briefly, cultured U87MG cells (5×10^5 cells/mouse) were injected over a 2 min period into the brain using a syringe, and needle withdrawal was conducted over another period of 0.5 min. A total of 50 mice were used, and the experiments were divided into five groups. In Group 1 (n=10), the mice received no further treatment after transplantation of U87MG cells, and these mice served as the control. In Group 2 (n=10), the mice received TrQβ VLPs (5 μM) via CED infusion two times (every 7 days) after 7 days of U87MG cell transplantation. […] The intracranial tumor volume in mice was measured by MR imaging. The survival time was calculated from the day of U87MG cell inoculation (0 day) to the day of death. […]

[1] = CED infusion followed by 2Gy X-ray irradiation

N.N.O=C([O-])C1(C(=O)[O-])CCC1.[Pt+2] [carboplatin]
median survival [1]: 51 days | mice survived over 54 days [1]: 10% | tumor volume by MRI (Day 34, CED infusion followed by 2Gy X-ray irradiation): 18.9±17.8 mm3 | tumor volume by MRI (Day 41, CED infusion followed by 2Gy X-ray irradiation): 55.2±36.5 mm3
